{
  "source": "paper PMC10449817",
  "about": "“Different solubilizing ability of cyclodextrin derivatives for cholesterol in Niemann–Pick disease type C treatment” (Clinical and Translational Medicine, 2023)",
  "key": {"[1]": {"test_system": "Npc1‐null Chinese hamster ovary cells", "experiment": "Measurement of intracellular cholesterol in NPC model cells", "type": "cell-based", "details": "24 h exposure; for EC50: concentrations up to 1 mM, read-out: EC50, reduction of UC levels accumulated in Npc1‐null cells", "procedure": "WT and Npc1‐null Chinese hamster ovary cells developed previously[34] were used. The cells were grown in a culture medium consisting of a 1:1 mixture of Dulbecco's modified Eagle's medium (DMEM) and F‐12 (Life Technologies) supplemented with 10% fetal bovine serum (FBS; Thermo Fisher Scientific, Inc.). The cells were maintained at 37°C in a saturated humidity atmosphere of 95% air and 5% CO2.\nThe measurement of intracellular cholesterol levels was performed in accordance with our previously developed method[35] with minor modification. Cells were pre‐incubated for 24 h and then exposed to a medium containing CD derivatives for 24 h. Thereafter, the cells were lysed, and aliquots were taken for cholesterol and protein measurements. Cholesterol was extracted from the cell lysate using chloroform, 2‐propanol and NP‐40 substitute (7:11:0.1), and the solution was then centrifuged (15 000 × g, 10 min, 4°C). The chloroform layer was evaporated, and the residues were dissolved in a solvent consisting of 2‐propanol, polyoxyethylene alkyl ether and polyoxyethylene lauryl ether (87:10:3). The dissolved samples were divided into two portions—one was incubated with esterase to measure total cholesterol (TC), and the other was incubated without esterase to measure UC. The cholesterol content was measured with a Determiner L FC kit. The EC level was calculated by deducting the UC level from the TC level. Intracellular cholesterol content was normalized by the total protein concentration as determined with a Pierce BCA Protein Assay Kit (Thermo Fisher Scientific, Inc.)."}, "[2]": {"test_system": "Npc1 homozygous mutant (Npc1 ^−/−) mice", "experiment": "Intracerebroventricular administration of CD derivatives in NPC model mice", "type": "in vivo", "details": "ICV 21.4 μmol/kg once at 4 weeks of age", "procedure": "(§1) Male and female Npc1 homozygous mutant (BALB/cNctr‐Npc1 ^m1N, Npc1 ^−/−) mice,[36] kindly donated by Prof. Kousaku Ohno and Dr. Katsumi Higaki, were used as a murine model of NPC. Age‐matched WT mice were used as controls. The mice were bred and housed under specific pathogen‐free conditions in the Center for Animal Resources and Development, Kumamoto University. The mice were housed in cages in a room under controlled temperature (24°C) and a 12/12‐h light/dark cycle, and provided with free access to food and water. The animal experiments were performed at the Department of Clinical Chemistry and Informatics, Graduate School of Pharmaceutical Sciences, Kumamoto University. CD derivatives were dissolved in distilled water, and the osmotic pressure was adjusted with sodium chloride to near physiological osmolality. The pH was adjusted to 7.4 using sodium hydroxide, and the solution was filtered with an Advantec DISMIC‐13CP 0.45‐μm filter (Toyo Roshi Kaisha, Ltd.). […] The survival times were recorded based on the day when the endpoint was reached, defined as death or the inability to consume food or drink independently.\nOrgan samples were fixed in 4% buffered paraformaldehyde immediately after collection and then embedded in paraffin. […] Histopathological changes were photographed and analyzed by microscopy (BioRevo BZ‐9000; Keyence Co.). […]"}, "WT mice [3]": {"test_system": "WT mice", "experiment": "Systemic biocompatibility of subcutaneous CD derivatives in mice", "type": "in vivo", "details": "SC 5.7 mmol/kg, 24 h later", "procedure": "as §1\nOrgan samples were fixed in 4% buffered paraformaldehyde immediately after collection and then embedded in paraffin. […] Histopathological changes were photographed and analyzed by microscopy (BioRevo BZ‐9000; Keyence Co.)."}, "[4]": {"experiment": "UC solubility analysis; binding constants of 1:1 and 2:1 CD:UC complexes", "type": "physicochemical", "details": "as a function of CD concentration, 37°C", "procedure": "An excess of UC (10 mg) was added to each concentration of CD derivative in distilled water and shaken at 37°C for 3 h at 180 rpm. After equilibrium was attained (Figure S1), an aliquot was filtered through a Millex‐HP PES 0.45‐μm filter (Merck Millipore Ltd.). The filtrate was mixed and shaken for 10 min with an appropriate volume of chloroform/methanol (2:1, v/v). After centrifugation (1500 × g, 10 min, 4°C), the chloroform phase was recovered and evaporated. The residue was dissolved in a solvent consisting of 2‐propanol, polyoxyethylene alkyl ether and polyoxyethylene lauryl ether (87:10:3), and the concentration of UC was measured with a Determiner L FC kit (Kyowa Hakko Kirin Co., Ltd.) on a microplate reader (Tecan Group, Ltd.). Three replicate samples were performed. The binding constants of the 1:1 and the 2:1 CD:UC complexes were calculated according to a previously established method.[26]"}, "WT mice [5]": {"test_system": "WT mice", "experiment": "Auditory brainstem response (ABR) after CD derivatives in mice", "type": "in vivo", "details": "1 week after, 4-32 kHz", "procedure": "Male and female Npc1 homozygous mutant (BALB/cNctr‐Npc1 ^m1N, Npc1 ^−/−) mice,[36] kindly donated by Prof. Kousaku Ohno and Dr. Katsumi Higaki, were used as a murine model of NPC. Age‐matched WT mice were used as controls. The mice were bred and housed under specific pathogen‐free conditions in the Center for Animal Resources and Development, Kumamoto University. The mice were housed in cages in a room under controlled temperature (24°C) and a 12/12‐h light/dark cycle, and provided with free access to food and water. The animal experiments were performed at the Department of Clinical Chemistry and Informatics, Graduate School of Pharmaceutical Sciences, Kumamoto University. CD derivatives were dissolved in distilled water, and the osmotic pressure was adjusted with sodium chloride to near physiological osmolality. The pH was adjusted to 7.4 using sodium hydroxide, and the solution was filtered with an Advantec DISMIC‐13CP 0.45‐μm filter (Toyo Roshi Kaisha, Ltd.). Intracerebroventricular administration was performed using stereotaxic instruments (IMPACT‐1000C and KDS 310 Plus; Muromachi Kikai Co., Ltd.) under anaesthesia (medetomidine:midazolam:butorphanol, 0.3:4.0:5.0 mg/kg, intraperitoneally). The subcutaneous injection volume was 20 mL/kg for all experimental groups. The survival times were recorded based on the day when the endpoint was reached, defined as death or the inability to consume food or drink independently.\nAuditory thresholds were measured using auditory brainstem response (ABR) System 3 (Tucker‐Davis Technologies). The animals were anaesthetized by intraperitoneal administration of xylazine and ketamine‐HCl in saline. Electrodes were placed beneath the pinna of the treated ear and at the vertex just below the surface of the skin, and the ground electrode was then placed under the contralateral ear. An average of 512 sweeps was calculated at 4, 8, 12, 20 and 32 kHz. The stimulus levels near the threshold were varied in 5‐dB steps, and the threshold was defined as the lowest level at which waves in the ABR could be clearly detected by visual inspection."}, "α‐glucosidase": {"test_system": "α‐glucosidase", "details": "cited from earlier work"}},
  "data": [
    {"substance": "2‐hydroxybutyl‐β‐CD [HB‐β‐CD]", "values": [
      {"measurement": "EC50", "setting": "[1]", "value": 11.6, "unit": "µM"}
    ]},
    {"substance": "2‐hydroxybutyl‐γ‐CD [HB‐γ‐CD]", "values": [
      {"measurement": "EC50", "setting": "[1]", "value": 11.5, "unit": "µM"},
      {"measurement": "body weight decline", "setting": "[2]", "value": "mitigated"},
      {"measurement": "lifespan and median survival time", "setting": "[2]", "value": "drastically prolonged"},
      {"measurement": "total protein concentration in BALF", "setting": "WT mice [3]", "value": "significant increases"}
    ]},
    {"substance": "2‐hydroxypropyl‐α‐CD [HP‐α‐CD]", "values": [
      {"measurement": "UC solubilization profile in aqueous solution", "setting": "[4]", "value": "negligible"},
      {"measurement": "EC/TC ratio", "setting": "[1]; Npc1‐null cells, above 0.1 mM", "value": "significantly diminished"},
      {"measurement": "intracellular UC levels", "setting": "[1]; Npc1‐null cells, concentration‐dependent, 1 mM", "value": "significantly diminished"},
      {"measurement": "ABR threshold", "setting": "WT mice [5]; single ICV 21.4 μmol/kg", "value": "did not cause any change"},
      {"measurement": "ABR threshold", "setting": "WT mice [5]; single SC 5.7 mmol/kg", "value": "did not cause any change"}
    ]},
    {"substance": "2‐hydroxypropyl‐β‐CD [HP‐β‐CD, reference compound]", "values": [
      {"measurement": "EC50", "setting": "[1]", "value": 40.3, "unit": "µM"},
      {"measurement": "ABR threshold", "setting": "WT mice [5]; single SC 5.7 mmol/kg", "value": "significantly increased"}
    ]},
    {"substance": "2‐hydroxypropyl‐γ‐CD [HP‐γ‐CD]", "values": [
      {"measurement": "EC50", "setting": "[1]", "value": 69.6, "unit": "µM"},
      {"measurement": "ABR threshold", "setting": "WT mice [5]; single SC 5.7 mmol/kg", "value": "only a moderate increase"}
    ]},
    {"substance": "mono‐6‐O‐α‐glucosyl‐β‐CD [G1‐β‐CD]", "values": [
      {"measurement": "EC50", "setting": "[1]", "value": 59.6, "unit": "µM"}
    ]},
    {"substance": "mono‐6‐O‐α‐glucosyl‐γ‐CD [G1‐γ‐CD]", "values": [
      {"measurement": "EC50", "setting": "[1]", "value": 156, "unit": "µM"}
    ]},
    {"substance": "mono‐6‐O‐α‐maltosyl‐β‐CD [G2‐β‐CD]", "values": [
      {"measurement": "EC50", "setting": "[1]", "value": 56, "unit": "µM"},
      {"measurement": "biodegradation to G1‐β‐CD in whole blood", "setting": "α‐glucosidase", "value": "rapidly biodegraded"}
    ]},
    {"substance": "mono‐6‐O‐α‐maltosyl‐γ‐CD [G2‐γ‐CD]", "values": [
      {"measurement": "EC50", "setting": "[1]", "value": 182, "unit": "µM"}
    ]}
  ]
}
